Values of other authors, collected in patent publication US20060073479A1 (priority 2001, published 2006).

Tests used:
[1] = urine and feces
[2] = system: patients treated with paclitaxel; details: in vivo
CYP2C8 = target: T1, CYP2C8 (Homo sapiens, UniProt P10632); details: in vitro studies
T1 sequence (P10632 1-490): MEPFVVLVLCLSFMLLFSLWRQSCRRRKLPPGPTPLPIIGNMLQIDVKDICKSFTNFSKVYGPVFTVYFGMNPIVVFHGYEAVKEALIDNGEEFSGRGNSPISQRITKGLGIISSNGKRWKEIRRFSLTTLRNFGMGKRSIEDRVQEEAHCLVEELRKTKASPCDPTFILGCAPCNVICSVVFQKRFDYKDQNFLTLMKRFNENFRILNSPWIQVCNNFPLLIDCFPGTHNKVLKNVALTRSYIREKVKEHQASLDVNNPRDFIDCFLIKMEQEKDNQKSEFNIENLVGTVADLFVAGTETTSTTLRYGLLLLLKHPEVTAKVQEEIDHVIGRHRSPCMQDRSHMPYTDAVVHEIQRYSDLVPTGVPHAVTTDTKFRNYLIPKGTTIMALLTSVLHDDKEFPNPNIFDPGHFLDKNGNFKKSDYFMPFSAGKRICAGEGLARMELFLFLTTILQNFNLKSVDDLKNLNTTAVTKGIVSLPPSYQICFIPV

CYP3A4 = CYP3A4 (Homo sapiens, UniProt P08684); details: in vitro studies
CYP3A4, sequence (P08684 whole entry): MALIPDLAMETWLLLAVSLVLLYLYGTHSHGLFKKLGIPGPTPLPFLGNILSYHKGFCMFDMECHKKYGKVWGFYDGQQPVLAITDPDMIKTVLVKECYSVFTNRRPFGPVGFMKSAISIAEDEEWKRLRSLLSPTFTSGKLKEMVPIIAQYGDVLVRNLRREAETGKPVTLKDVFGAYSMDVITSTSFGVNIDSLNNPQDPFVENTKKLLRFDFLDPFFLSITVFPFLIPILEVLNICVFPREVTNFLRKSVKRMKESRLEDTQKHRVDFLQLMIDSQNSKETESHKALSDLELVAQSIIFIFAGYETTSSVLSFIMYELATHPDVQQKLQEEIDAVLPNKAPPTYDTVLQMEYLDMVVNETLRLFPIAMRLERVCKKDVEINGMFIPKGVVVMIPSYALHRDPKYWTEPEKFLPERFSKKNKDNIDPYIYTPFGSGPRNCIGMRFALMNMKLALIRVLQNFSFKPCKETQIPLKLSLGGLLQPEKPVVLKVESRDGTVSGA

metabolism by CYP2C8 (CYP2C8) | metabolism by CYP3A4 (CYP3A4) | Compound | metabolism / excretion in words [1] | fraction of treated patients refractory to beneficial effect [2]
 |  | N.N.O=C([O-])C1(C(=O)[O-])CCC1.[Pt+2] [carboplatin] | relatively stable and excreted largely in unchanged form in the urine | 
metabolized by CYP2C8 | to a lesser extent by CYP3A4 | CC(=O)O[C@H]1C(=O)[C@@]2(C)[C@H]([C@H](OC(=O)c3ccccc3)[C@]3(O)C[C@H](OC(=O)[C@H](O)[C@@H](NC(=O)c4ccccc4)c4ccccc4)C(C)=C1C3(C)C)[C@]1(OC(C)=O)CO[C@@H]1C[C@@H]2O [paclitaxel] |  | about one-third
